Patent publication US9670157B2, “Benzylamine derivatives” (KALVISTA PHARMACEUTICALS LIMITED, priority 2013, dated 2017)

Columns and labels:
Human plasma kallikrein = Human plasma kallikrein (Homo sapiens (Human), UniProt P03952); test: Determination of the IC50 for Plasma Kallikrein; type: biochemical; conditions: 37° C., fluorogenic substrate H-DPro-Phe-Arg-AFC; read-out: IC50 (human PKal)
Procedure: Human plasma kallikrein (Protogen) was incubated at 37° C. with the fluorogenic substrate H-DPro-Phe-Arg-AFC and various concentrations of the test compound. Residual enzyme activity (initial rate of reaction) was determined by measuring the change in optical absorbance at 410 nm and the IC50 value for the test compound was determined.

Human KLK1 = Human KLK1 (Homo sapiens (Human), UniProt P06870); test: Determination of the IC50 for KLK1; type: biochemical; conditions: 37° C., fluorogenic substrate H-DVal-Leu-Arg-AFC
Procedure: KLK1 inhibitory activity in vitro was determined using standard published methods (see e.g. Johansen et al., Int. J. Tiss. Reac. 1986, 8, 185; Shori et al., Biochem. Pharmacol., 1992, 43, 1209; Stürzebecher et al., Biol. Chem. Hoppe-Seyler, 1992, 373, 1025). Human KLK1 (Callbiochem) was incubated at 37° C. with the fluorogenic substrate H-DVal-Leu-Arg-AFC and various concentrations of the test compound. Residual enzyme activity (initial rate of reaction) was determined by measuring the change in optical absorbance at 410 nm and the IC50 value for the test compound was determined.

Sequence of Human KLK1 (P06870 25-262): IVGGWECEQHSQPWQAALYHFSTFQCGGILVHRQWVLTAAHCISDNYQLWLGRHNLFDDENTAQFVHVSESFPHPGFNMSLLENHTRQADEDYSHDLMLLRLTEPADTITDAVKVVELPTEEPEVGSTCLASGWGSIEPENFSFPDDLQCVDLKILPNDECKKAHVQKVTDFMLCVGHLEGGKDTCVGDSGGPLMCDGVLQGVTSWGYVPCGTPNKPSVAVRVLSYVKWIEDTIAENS
Sequence of Human plasma kallikrein (P03952 391-638): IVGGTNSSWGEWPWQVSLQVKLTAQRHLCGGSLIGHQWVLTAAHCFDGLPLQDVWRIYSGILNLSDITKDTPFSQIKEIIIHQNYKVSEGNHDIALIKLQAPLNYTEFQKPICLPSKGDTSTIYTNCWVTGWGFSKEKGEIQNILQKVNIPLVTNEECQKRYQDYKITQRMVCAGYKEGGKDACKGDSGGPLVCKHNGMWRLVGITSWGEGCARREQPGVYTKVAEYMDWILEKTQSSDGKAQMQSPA
Sequence of Human plasma kallikrein (P03952 20-390 partner): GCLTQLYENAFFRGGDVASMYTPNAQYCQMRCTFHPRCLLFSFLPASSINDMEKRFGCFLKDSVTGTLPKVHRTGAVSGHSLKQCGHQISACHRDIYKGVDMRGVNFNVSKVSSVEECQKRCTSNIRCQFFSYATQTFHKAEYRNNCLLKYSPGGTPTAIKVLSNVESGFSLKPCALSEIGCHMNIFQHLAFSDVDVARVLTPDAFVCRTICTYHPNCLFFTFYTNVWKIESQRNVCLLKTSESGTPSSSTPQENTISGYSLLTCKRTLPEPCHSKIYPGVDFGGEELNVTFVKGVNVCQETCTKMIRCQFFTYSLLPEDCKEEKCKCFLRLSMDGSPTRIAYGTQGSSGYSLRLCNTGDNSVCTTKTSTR

| IC50 (Human plasma kallikrein) [µM] | IC50 (Human KLK1) [µM] | Compound |
| --- | --- | --- |
| 0.006 | > 10 | Cc1cc(CN)cc(C)c1CNC(=O)c1cc(C)n(Cc2csc(-c3ccccc3)n2)c1C [Example 3, 2,5-Dimethyl-1-(2-phenyl-thiazol-4-ylmethyl)-1H-pyrrole-3-carboxylic acid 4-aminomethyl-2,6-dimethyl-benzylamide] |
| 0.121 | > 10 | Cc1cc(C(=O)NCc2ccc(C3(N)CC3)cc2)c(C)n1Cc1csc(-c2ccccc2)n1 [Example 4, 2,5-Dimethyl-1-(2-phenyl-thiazol-4-ylmethyl)-1H-pyrrole-3-carboxylic acid 4-(1-amino-cyclopropyl)-benzylamide] |
| 0.348 | 6.36 | Cc1cc(C(=O)NCc2ccc(CN)cc2)c(C)n1Cc1csc(-c2cccnc2)c1 [Example 8, 2,5-Dimethyl-1-(5-pyridin-3-yl-thiophen-3-ylmethyl)-1H-pyrrole-3-carboxylic acid 4-aminomethyl-benzylamide] |
| 0.571 | > 10 | Cc1cc(C(=O)NCc2ccc(CN)cc2)c(C)n1Cc1csc(-c2ccccc2)c1 [Example 10, 2,5-Dimethyl-1-(5-phenyl-thiophen-3-ylmethyl)-1H-pyrrole-3-carboxylic acid 4-aminomethyl-benzylamide] |
| 5.12 | > 10 | Cc1cc(C(=O)NCc2ccc(CN)cc2)c(C)n1Cc1nc2ccccc2s1 [Example 12, 1-Benzothiazol-2-ylmethyl-2,5-dimethyl-1H-pyrrole-3-carboxylic acid 4-aminomethyl-benzylamide] |
| 2.38 | > 10 | Cc1cc(C(=O)NCc2ccc(CN)cc2)c(C)n1Cc1cc(-c2cccnc2)cs1 [Example 13, 2,5-Dimethyl-1-(4-pyridin-3-yl-thiophen-2-ylmethyl)-1H-pyrrole-3-carboxylic acid 4-aminomethyl-benzylamide] |
| 2.29 | 6.37 | Cc1cc(C(=O)NCc2ccc(CN)cc2)c(C)n1Cc1cc(-c2ccncc2)cs1 [Example 14, 2,5-Dimethyl-1-(4-pyridin-4-yl-thiophen-2-ylmethyl)-1H-pyrrole-3-carboxylic acid 4-aminomethyl-benzylamide] |
| 5.69 | > 10 | Cc1cc(C(=O)NCc2ccc(CN)cc2)c(C)n1Cc1cccc(N2CCOCC2)n1 [Example 15, 2,5-Dimethyl-1-(6-morpholin-4-yl-pyridin-2-ylmethyl)-1H-pyrrole-3-carboxylic acid 4-aminomethyl-benzylamide] |
| 0.186 | > 10 | Cc1cc(C(=O)NCc2ccc(CN)cc2)c(C)n1Cc1cccc(-c2ccccc2)n1 [Example 16, 2,5-Dimethyl-1-(6-phenyl-pyridin-2-ylmethyl)-1H-pyrrole-3-carboxylic acid 4-aminomethyl-benzylamide] |
| 0.435 | > 10 | Cc1cc(C(=O)NCc2ccc(CN)cc2)c(C)n1Cc1coc(-c2ccccc2)n1 [Example 18, 2,5-Methyl-1-(2-phenyl-oxazol-4-ylmethyl)-1H-pyrrole-3-carboxylic acid 4-aminomethyl-benzylamide] |
| 0.768 | > 10 | Cc1oc(-c2ccccc2)nc1Cn1c(C)cc(C(=O)NCc2ccc(CN)cc2)c1C [Example 19, 2,5-Dimethyl-1-(5-methyl-2-phenyl-oxazol-4-ylmethyl)-1H-pyrrole-3-carboxylic acid 4-aminomethyl-benzylamide] |
| 4.95 | 2.4 | Cc1cc(C(=O)NCc2ccc(CN)cc2)c(C)n1Cc1cccs1 [Example 20, 2,5-Dimethyl-1-thiophen-2-ylmethyl-1H-pyrrole-3-carboxylic acid 4-amidomethyl-benzylamide] |
| 1.6 | > 10 | Cc1nc(-c2ccc(Cn3c(C)cc(C(=O)NCc4ccc(CN)cc4)c3C)s2)cs1 [Example 23, 2,5-Dimethyl-1-[5-(2-methyl-thiazol-4-yl)-thiophen-2-ylmethyl]-1H-pyrrole-3-carboxylic acid 4-aminomethyl-benzylamide] |
| 0.431 | > 10 | Cc1cc(C(=O)NCc2ccc(CN)cc2)c(-c2ccccc2)n1Cc1csc(-c2ccccc2)n1 [Example 24, 5-Methyl-2-phenyl-1-(2-phenyl-thiazol-4-ylmethyl)-1H-pyrrole-3-carboxylic acid 4-aminomethyl-benzylamide] |
| 0.437 | > 10 | Cc1cc(C(=O)NCc2ccc(CN)cc2)c(C)n1Cc1csc(-c2cccs2)n1 [Example 26, 2,5-Dimethyl-1-[2-(2-thienyl)-thiazol-4-ylmethyl]-1H-pyrrole-3-carboxylic acid 4-aminomethyl-benzylamide] |
| 0.14 | > 10 | Cc1cc(C(=O)NCc2ccc(CN)cc2)c(C)n1Cc1csc(-c2cccc(F)c2)n1 [Example 29, 1-[2-(3-Fluoro-phenyl)-thiazol-4-ylmethyl]-2,5-dimethyl-1H-pyrrole-3-carboxylic acid 4-aminomethyl-benzylamide] |
| 0.773 | > 10 | Cc1cccc(-c2nc(Cn3c(C)cc(C(=O)NCc4ccc(CN)cc4)c3C)cs2)c1 [Example 30, 2,5-Dimethyl-1-(2-m-tolyl-thiazol-4-ylmethyl)-1H-pyrrole-3-carboxylic acid 4-aminomethyl-benzylamide] |
| 0.732 | > 10 | Cc1cc(C(=O)NCc2ccc(CN)cc2)c(C)n1Cc1csc(-c2ccncc2)n1 [Example 32, 2,5-Dimethyl-1-(2-pyridin-4-yl-thiazol-4-ylmethyl)-1H-pyrrole-3-carboxylic acid 4-aminomethyl-benzylamide] |
| 2.1 | > 10 | Cc1ccc(-c2nc(Cn3c(C)cc(C(=O)NCc4ccc(CN)cc4)c3C)cs2)cc1 [Example 35, 2,5-Dimethyl-1-(2-p-tolyl-thiazol-4-ylmethyl)-1H-pyrrole-3-carboxylic acid 4-aminomethyl-benzylamide] |
| 0.203 | > 10 | Cc1cc(C(=O)NCc2ccc(CN)cc2)c(C)n1Cc1csc(-c2ccccn2)n1 [Example 36, 2,5-Dimethyl-1-(2-pyridin-2-yl-thiazol-4-ylmethyl)-1H-pyrrole-3-carboxylic acid 4-aminomethyl-benzylamide] |
| 2.31 | > 10 | Cc1cc(C(=O)NCc2ccc(CN)cc2)c(C)n1Cc1csc(Cc2ccccc2)n1 [Example 38, 1-(2-Benzyl-thiazol-4-ylmethyl)-2,5-dimethyl-1H-pyrrole-3-carboxylic acid 4-aminomethyl-benzylamide] |
| 1.66 | > 10 | Cc1cc(C(=O)NCc2ccc(CN)cc2)c(C)n1Cc1csc(-c2cnccn2)n1 [Example 40, 2,5-Dimethyl-1-(2-pyrazin-2-yl-thiazol-4-ylmethyl)-1H-pyrrole-3-carboxylic acid 4-aminomethyl-benzylamide] |
| 4.7 | > 10 | CCOc1ccc(-c2nc(Cn3c(C)cc(C(=O)NCc4ccc(CN)cc4)c3C)cs2)cc1 [Example 41, 1-[2-(4-Ethoxy-phenyl)-thiazol-4-ylmethyl]-2,5-dimethyl-1H-pyrrole-3-carboxylic acid 4-aminomethyl-benzylamide] |

| Compound | IC50 (Human plasma kallikrein) [µM] | IC50 (Human KLK1) [µM] |
| --- | --- | --- |
| Cc1cc(C(=O)NCc2ccc(CN)cc2)c(C)n1Cc1cc(-c2ccccc2)no1 [Example 11, 2,5-Dimethyl-1-(3-phenyl-isoxazol-5-ylmethyl)-1H-pyrrole-3-carboxylic acid 4-aminomethyl-benzylamide] | 2.42 | > 10 |
| Cc1cc(C(=O)NCc2ccc(CN)cc2)c(C)n1Cc1cccc(-c2cccnc2)n1 [Example 17, 1-[2,3′]Bipyridinyl-6-ylmethyl-2,5-dimethyl-1H-pyrrole-3-carboxylic acid 4-aminomethyl-benzylamide] | 0.492 | > 10 |
| Cc1cc(C(=O)NCc2ccc(CN)cc2)c(C)n1Cc1ccc(-c2ccccc2)s1 [Example 22, 2,5-Dimethyl-1-(5-phenyl-thiophen-2-ylmethyl)-1H-pyrrole-3-carboxylic acid 4-aminomethyl-benzylamide] | 3.27 | > 10 |
| Cc1c(C(=O)NCc2ccc(CN)cc2)ccn1Cc1csc(-c2ccccc2)n1 [Example 25, 2-Methyl-1-(2-phenyl-thiazol-4-ylmethyl)-1H-pyrrole-3-carboxylic acid 4-aminomethyl-benzylamide] | 1.33 | > 10 |
| Cc1cc(C(=O)NCc2ccc(CN)cc2)c(C)n1Cc1csc(-c2cccc(Cl)c2)n1 [Example 27, 2,5-Dimethyl-1-[2-(3-chlorophenyl)-thiazol-4-ylmethyl]-1H-pyrrole-3-carboxylic acid 4-aminomethyl-benzylamide] | 0.848 | > 10 |
| Cc1cc(C(=O)NCc2ccc(CN)cc2)c(C)n1Cc1csc(-c2ccc(Cl)cc2)n1 [Example 28, 2,5-Dimethyl-1-[2-(4-chlorophenyl)-thiazol-4-ylmethyl]-1H-pyrrole-3-carboxylic acid 4-aminomethyl-benzylamide] | 1.33 | > 10 |
| Cc1cc(C(=O)NCc2ccc(CN)cc2)c(C)n1Cc1csc(-c2cccnc2)n1 [Example 31, 2,5-Dimethyl-1-(2-pyridin-3-yl-thiazol-4-ylmethyl)-1H-pyrrole-3-carboxylic acid 4-aminomethyl-benzylamide] | 0.251 | 8.08 |
| Cc1cc(C(=O)NCc2ccc(CN)cc2)c(C)n1Cc1ccccc1 [Example 55, 1-Benzyl-2,5-dimethyl-1H-pyrrole-3-carboxylic acid 4-aminomethyl-benzylamide] | 3.27 | – |
